Results from patent US5063225A, “Benzothiazepines” (Roussel Uclaf, priority 1989, dated 1991).
Counter-ions that a name gives are not always drawn. Like-named read-outs stand apart in the source and are kept apart here.

Tests used:
[1] = test system: blood-platelets (rabbit PRP); assay: Blood-platelet aggregation, in vitro, on plasma rich in blood-platelets (PRP); format: cell-based; settings: Oryctolagus cuniculus, 2 min, 2 minutes incubation, read-out: IC50 (concentration inhibiting the aggregation by 50%)
Description: 2) Test for the Activity of Anti-Aggregation of Blood-Platelets. Blood-Platelet Aggregation, In Vitro, on Plasma Rich in Blood-Platelets (PRP)
Measurement of blood-platelet aggregation was made by the turbidimetric method of Born et al 1963, J. Physiol., Vol. 168, p. 178. Rabbit's blood was removed on Na citrate at 3.2% by cardiac puncture and the plasma rich in blood-platelets was obtained by centrifuging and adjustment of the number of blood-platelets to 300,000 per microliter. The aggregation was induced by collagen (40 micrograms per ml of PRP) or PAF acether (0.05 micromoles per liter of PRP). The compounds under test were incubated at different concentrations in the PRP 2 minutes before the aggregating agent. The results were expressed in IC50 (concentration inhibiting the aggregation by 50% relative to the control curves).

[2] = test system: broncho-constriction induced by serotonin; assay: Anti-serotoninergic activity: broncho-constriction in a guinea-pig induced by serotonin; format: in vivo; settings: 1 mg/kg injected via jugular vein one minute before serotonin (3 to 5 micrograms/kg IV)
Description: 3) Test for Anti-Serotoninergic Activity Broncho-constriction in a guinea-pig induced by serotonin. The pulmonary resistance to insufflation was measured by the technique of "overflow" according to KONZETT et al [Arch. Ex. Pathol. Pharmakol, 1940, Vol. 195, p. 71]. The guinea-pigs were anaesthetized with urethane and the jugular vein was catherized to inject the products, and the trachea was catheterized to insert artificial ventilation. Broncho-constriction was induced by a dose of 3 to 5 micrograms/kg of serotonin injected intravenously and the antagonists were injected one minute before the induction of the broncho-spasm. It can be noted from the results of the table below that the products of the present Application have a strong anti-serontoninergic activity.

[3] = test system: ventricular extrasystoles initiated by aconitine in rats; assay: Anti-arhythmic action in the rat (aconitine-induced ventricular extrasystoles); format: in vivo; settings: relative to control animals
Description: 1) Anti-arhythmic action in the rat
Male rats weighing 300-350 g, anaesthetized by intraperitoneal route using 1.20 g/kg of urethane, were tracheotomized and subjected to artificial respiration (40-50 insufflations of 3 ml/minute). Needles were implanted subcutaneously to record the electro-cardiogram of the rats on the signal in the DII derivation. The products under test were administered by intravenous route or by oral route. After five minutes in the case of administration intravenously and one hour in the case of oral administration, the jugular vein of the rats was perfused with 10 micrograms/min. under 0.2 ml of an aconitine solution. The time taken for the first ventricular extrasystoles to appear was noted and the amount of aconitine perfused was calculated, then expressed as a function of the body weight of the animal.
The percentage of increase of the aconitine dose necessary to initiate the ventricular extrasystoles after treatment was calculated relative to the control animals.

mouse = assay: Study of the acute toxicity; format: in vivo; settings: single administration
Description: 4) Study of the Acute Toxicity
The lethal doses LD of the various compounds under test were evaluated after a single administration intraperitoneally or orally to a mouse.

[4] = induction by PAF-ACETHER (0.05 micromoles per liter of PRP)
[5] = induction by collagen (40 micrograms per ml of PRP)
[6] = IV, 5 mg/kg, five minutes before aconitine
[7] = oral (O), 25 mg/kg, one hour before aconitine

Compound | IC50 [1, 4] [µM] | IC50 [1, 5] [µM] | Percentage of inhibition of the broncho-constriction [2] [%] | Percentage of increase of the aconitine dose for initiating the extrasystoles [3, 6] [%] | Percentage of increase of the aconitine dose for initiating the extrasystoles [3, 7] [%] | LD0 (maximum dose which did not cause any deaths over 8 days) (mouse; IP) [mg/kg] | LD0 (maximum dose which did not cause any deaths over 8 days) (mouse; oral (O)) [mg/kg]
COc1ccc(C2CSc3ccccc3N(CCN(C(C)C)C(C)C)C2=O)cc1 (racemic) [Example 9, (±)-5-[2-[[bis(1-methylethyl)]-amino]-ethyl]-2,3-dihydro-3-(4-methoxyphenyl)-1,5-benzothiazepin-4(5H)-one hydrochloride] | 58 | 66 | – | – | – | – | –
COc1ccc(C2CSc3ccccc3N(CCN3CCCC3)C2=O)cc1 (stereo not shown) [Example 1, 2,3-dihydro-3-(4-methoxy-phenyl)-5-[2-(1-pyrrolidinyl)-ethyl]-1,5-benzothiazepin-4(5H)-one (Z)-2-butenedioate] | 78 | 74 | 79 | – | – | – | –
CCN(CC)CCN1C(=O)C(c2ccc(OC)cc2)CSc2ccccc21.O=C(O)C(=O)O (stereo not shown) [Example 5, 5-[2-(diethylamino)-ethyl]-2,3-dihydro-3-(4-methoxyphenyl)-1,5-benzothiazepin-4(5H)-one ethanedioate] | – | – | 87 | – | – | – | –
COc1ccc(C2CSc3ccccc3N(CCCN(C)C)C2=O)cc1 (stereo not shown) [Example 6, 2,3-dihydro-5-[3-(dimethylamino)-propyl]-3-(4-methoxyphenyl)-1,5-benzothiazepin-4(5H)-one (E)-butenedioate] | – | – | – | 142 | > 188 | 100 | 100
COc1ccc(C2CSc3ccccc3N(CCN3CCN(C)CC3)C2=O)cc1 (stereo not shown) [Example 7, 2,3-dihydro-3-(4-methoxyphenyl)-5-[2-(4-methyl-1-piperazinyl)-ethyl]-1,5-benzothiazepin-4(5H)-one dichlorhydrate] | – | – | – | 25 | 129 | 100 | 100
CN(C)CCN1C(=O)C(c2ccc(Cl)cc2)CSc2ccccc21.Cl (stereo not shown) [Example 11, 3-(4-chloro-phenyl)-2,3-dihydro-5-[2-(dimethylamino)-ethyl]-1,5-benzothiazepin-4(5H)-one hydrochloride] | 40 | 8 | 82 | 32 | 135 | 80 | 100
COc1ccccc1C1CSc2ccccc2N(CCN(C)C)C1=O.Cl (stereo not shown) [Example 12, 2,3-dihydro-5-[2-(dimethylamino)-ethyl]-3-(2-methoxy-phenyl)-1,5-benzothiazepin-4(5H)-one hydrochloride] | 9 | 56 | 64 | – | – | 100 | > 200
COc1ccc(C2CSc3ccccc3N(CCN(C)C)C2=O)cc1 (stereo not shown) [Example 13, 2,3-dihydro-5-8 2-(dimethylamino)-ethyl]-3-(4-methoxy phenyl)-1,5-benzothiazepin-4(5H)-one (E)-2-butenedioate] | – | – | 87 | 24 | 35 | 80 | > 200
